# Reference: the supplement of paper PMC10733146
# Columns and labels:
# Assay in all cases: viability relative to DMSO control (fraction); higher = less drug effect (more viable cells)
# Conditions in all cases: 48 h
# [1] = system: primary AML patient cells (S002)
# Method in brief: (§1)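 The cells were primary mononuclear tumour cells, either fresh or cryopreserved, isolated by Ficoll from blood or bone marrow or derived from processed lymph node. Each well of a 384-well plate received 4 × 10^4 cells onto compounds pre-plated at five concentrations, with one well per concentration. The medium was RPMI-1640 with penicillin/streptomycin, L-glutamine and human serum, and plates stood at 37 °C and 5% CO2 for 48 h. Viability is reported as CellTiter-Glo luminescence relative to the median of 16 inner DMSO wells.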
# [2] = system: primary AML patient cells (S009)
# Method in brief: as §1
# [3] = system: primary AML patient cells (S019)
# Method in brief: as §1
# [4] = system: primary AML patient cells (S025)
# Method in brief: as §1
# [5] = system: primary AML patient cells (S037)
# Method in brief: as §1
# [6] = system: primary AML patient cells (S055)
# Method in brief: as §1
# [7] = system: primary AML patient cells (S071)
# Method in brief: as §1
# [8] = system: primary AML patient cells (S072)
# Method in brief: as §1
# [9] = system: primary AML patient cells (S079)
# Method in brief: as §1
# [10] = system: primary AML patient cells (S089)
# Method in brief: as §1
# [11] = system: primary AML patient cells (S091)
# Method in brief: as §1
# [12] = system: primary DLBCL patient cells (S049)
# Method in brief: as §1
# [13] = system: primary DLBCL patient cells (S076)
# Method in brief: as §1
# [14] = system: primary DLBCL patient cells (S082)
# Method in brief: as §1
# [15] = system: primary MCL patient cells (S041)
# Method in brief: as §1
# [16] = system: primary T-NHL patient cells (S058)
# Method in brief: as §1
# [17] = system: primary T-PLL patient cells (S008)
# Method in brief: as §1
compound,measurement,setting,value
N#CC[C@H](C1CCCC1)n1cc(-c2ncnc3[nH]ccc23)cn1 [Ruxolitinib],viability,[1]; 0.024 µM,0.982
same,viability,[1]; 0.12 µM,0.788
same,viability,[1]; 0.6 µM,0.851
same,viability,[1]; 3 µM,0.707
same,viability,[1]; 15 µM,0.646
same,viability,[2]; 0.024 µM,1.09
same,viability,[2]; 0.12 µM,1.01
same,viability,[2]; 0.6 µM,0.98
same,viability,[2]; 3 µM,1.02
same,viability,[2]; 15 µM,0.928
same,viability,[3]; 0.024 µM,1.09
same,viability,[3]; 0.12 µM,0.873
same,viability,[3]; 0.6 µM,1.03
same,viability,[3]; 3 µM,0.849
same,viability,[3]; 15 µM,0.716
same,viability,[4]; 0.024 µM,0.954
same,viability,[4]; 0.12 µM,0.962
same,viability,[4]; 0.6 µM,1.04
same,viability,[4]; 3 µM,1.02
same,viability,[4]; 15 µM,1.06
same,viability,[5]; 0.024 µM,1.02
same,viability,[5]; 0.12 µM,0.956
same,viability,[5]; 0.6 µM,0.989
same,viability,[5]; 3 µM,0.97
same,viability,[5]; 15 µM,0.965
same,viability,[6]; 0.024 µM,1.01
same,viability,[6]; 0.12 µM,0.961
same,viability,[6]; 0.6 µM,1
same,viability,[6]; 3 µM,1.03
same,viability,[6]; 15 µM,1.05
same,viability,[7]; 0.024 µM,1.01
same,viability,[7]; 0.12 µM,0.988
same,viability,[7]; 0.6 µM,0.956
same,viability,[7]; 3 µM,0.944
same,viability,[7]; 15 µM,0.744
same,viability,[8]; 0.024 µM,1.04
same,viability,[8]; 0.12 µM,0.925
same,viability,[8]; 0.6 µM,0.873
same,viability,[8]; 3 µM,0.913
same,viability,[8]; 15 µM,0.883
same,viability,[9]; 0.024 µM,0.979
same,viability,[9]; 0.12 µM,0.845
same,viability,[9]; 0.6 µM,0.808
same,viability,[9]; 3 µM,0.774
same,viability,[9]; 15 µM,0.724
same,viability,[10]; 0.024 µM,0.658
same,viability,[10]; 0.12 µM,0.804
same,viability,[10]; 0.6 µM,0.603
same,viability,[10]; 3 µM,0.686
same,viability,[10]; 15 µM,0.704
same,viability,[11]; 0.024 µM,0.915
same,viability,[11]; 0.12 µM,1.09
same,viability,[11]; 0.6 µM,0.889
same,viability,[11]; 3 µM,1.12
same,viability,[11]; 15 µM,1.28
same,viability,[12]; 0.024 µM,1.03
same,viability,[12]; 0.12 µM,0.91
same,viability,[12]; 0.6 µM,0.994
same,viability,[12]; 3 µM,0.981
same,viability,[12]; 15 µM,1
same,viability,[13]; 0.024 µM,1.05
same,viability,[13]; 0.12 µM,0.823
same,viability,[13]; 0.6 µM,0.82
same,viability,[13]; 3 µM,0.702
same,viability,[13]; 15 µM,0.719
same,viability,[14]; 0.024 µM,1.01
same,viability,[14]; 0.12 µM,0.904
same,viability,[14]; 0.6 µM,1.03
same,viability,[14]; 3 µM,1.04
same,viability,[14]; 15 µM,0.913
same,viability,[15]; 0.024 µM,1.02
same,viability,[15]; 0.12 µM,0.972
same,viability,[15]; 0.6 µM,0.997
same,viability,[15]; 3 µM,1.01
same,viability,[15]; 15 µM,0.952
same,viability,[16]; 0.024 µM,0.983
same,viability,[16]; 0.12 µM,0.887
same,viability,[16]; 0.6 µM,0.924
same,viability,[16]; 3 µM,0.904
same,viability,[16]; 15 µM,0.8
same,viability,[17]; 0.024 µM,0.966
same,viability,[17]; 0.12 µM,1.01
same,viability,[17]; 0.6 µM,0.97
same,viability,[17]; 3 µM,1.09
same,viability,[17]; 15 µM,0.952
CO[C@H]1C[C@@H]2CC[C@@H](C)[C@@](O)(O2)C(=O)C(=O)N2CCCC[C@H]2C(=O)O[C@H]([C@H](C)C[C@@H]2CC[C@@H](OC(=O)C(C)(CO)CO)[C@H](OC)C2)CC(=O)[C@H](C)/C=C(\C)[C@@H](O)[C@@H](OC)C(=O)[C@H](C)C[C@H](C)/C=C/C=C/C=C/1C [Temsirolimus],viability,[1]; 0.032 µM,0.755
same,viability,[1]; 0.16 µM,0.706
same,viability,[1]; 0.8 µM,0.702
same,viability,[1]; 4 µM,0.62
same,viability,[1]; 20 µM,0.44
same,viability,[2]; 0.032 µM,0.92
same,viability,[2]; 0.16 µM,0.774
same,viability,[2]; 0.8 µM,0.846
same,viability,[2]; 4 µM,0.769
same,viability,[2]; 20 µM,0.533
same,viability,[3]; 0.032 µM,0.909
same,viability,[3]; 0.16 µM,0.834
same,viability,[3]; 0.8 µM,0.915
same,viability,[3]; 4 µM,0.873
same,viability,[3]; 20 µM,0.739
same,viability,[4]; 0.032 µM,0.914
same,viability,[4]; 0.16 µM,0.962
same,viability,[4]; 0.8 µM,0.883
same,viability,[4]; 4 µM,0.893
same,viability,[4]; 20 µM,0.754
same,viability,[5]; 0.032 µM,0.966
same,viability,[5]; 0.16 µM,0.903
same,viability,[5]; 0.8 µM,0.957
same,viability,[5]; 4 µM,0.931
same,viability,[5]; 20 µM,0.807
same,viability,[6]; 0.032 µM,0.919
same,viability,[6]; 0.16 µM,0.959
same,viability,[6]; 0.8 µM,0.957
same,viability,[6]; 4 µM,0.955
same,viability,[6]; 20 µM,0.812
same,viability,[7]; 0.032 µM,0.837
same,viability,[7]; 0.16 µM,0.761
same,viability,[7]; 0.8 µM,0.723
same,viability,[7]; 4 µM,0.646
same,viability,[7]; 20 µM,0.407
same,viability,[8]; 0.032 µM,0.733
same,viability,[8]; 0.16 µM,0.886
same,viability,[8]; 0.8 µM,0.704
same,viability,[8]; 4 µM,0.728
same,viability,[8]; 20 µM,0.604
same,viability,[9]; 0.032 µM,0.764
same,viability,[9]; 0.16 µM,0.771
same,viability,[9]; 0.8 µM,0.768
same,viability,[9]; 4 µM,0.755
same,viability,[9]; 20 µM,0.675
same,viability,[10]; 0.032 µM,0.752
same,viability,[10]; 0.16 µM,0.831
same,viability,[10]; 0.8 µM,0.673
same,viability,[10]; 4 µM,0.684
same,viability,[10]; 20 µM,0.719
same,viability,[11]; 0.032 µM,0.697
same,viability,[11]; 0.16 µM,0.686
same,viability,[11]; 0.8 µM,0.659
same,viability,[11]; 4 µM,0.663
same,viability,[11]; 20 µM,0.611
same,viability,[12]; 0.032 µM,1.02
same,viability,[12]; 0.16 µM,0.986
same,viability,[12]; 0.8 µM,0.987
same,viability,[12]; 4 µM,0.966
same,viability,[12]; 20 µM,0.794
same,viability,[13]; 0.032 µM,0.821
same,viability,[13]; 0.16 µM,0.753
same,viability,[13]; 0.8 µM,0.805
same,viability,[13]; 4 µM,0.765
same,viability,[13]; 20 µM,0.616
same,viability,[14]; 0.032 µM,0.794
same,viability,[14]; 0.16 µM,0.759
same,viability,[14]; 0.8 µM,0.776
same,viability,[14]; 4 µM,0.804
same,viability,[14]; 20 µM,0.748
same,viability,[15]; 0.032 µM,0.853
same,viability,[15]; 0.16 µM,0.829
same,viability,[15]; 0.8 µM,0.858
same,viability,[15]; 4 µM,0.848
same,viability,[15]; 20 µM,0.768
same,viability,[16]; 0.032 µM,0.902
same,viability,[16]; 0.16 µM,0.809
same,viability,[16]; 0.8 µM,0.904
same,viability,[16]; 4 µM,0.873
same,viability,[16]; 20 µM,0.697
same,viability,[17]; 0.032 µM,0.982
same,viability,[17]; 0.16 µM,0.958
same,viability,[17]; 0.8 µM,0.941
same,viability,[17]; 4 µM,0.959
same,viability,[17]; 20 µM,0.878
